Assay results published in US20220380385A1, “PYRIMIDINE FIVE-MEMBERED NITROGEN HETEROCYCLIC DERIVATIVE, PREPARATION METHOD THEREOF AND PHARMACEUTICAL USE THEREOF” (TUOJIE BIOTECH(SHANGHAI) CO., LTD., priority 2019, published 2022).

Assays:
[1] = In vivo pharmacokinetics in rats (gavage); parameters: species or system SD rats; settings: original drug, rat, 5 mpk
Method: Rats were used as the test animals. The plasma drug concentration at different times after the rats were given the compounds of the invention by gavage was determined by using the LC/MS/MS method. The in vivo pharmacokinetic behavior of the compounds of the present invention in rats was studied, and pharmacokinetic characteristics thereof were evaluated.
Test animals: 3 healthy, 6-8 weeks old male SD rats in each group
A certain amount of drug was weighed, and 0.5% by mass of hypromellose, 0.1% by volume of Tween 80 and 99.4% by volume of water were added thereto to formulate a white suspension at 1 mg/mL.
SD rats were fasted overnight, then the drug was administered by gavage. The dosage of reference 1 was 7.5 mg/kg, and the dosage of Example 1 was 5 mg/kg.
Rats were administered the compounds of the present invention by gavage. At 0.25, 0.5, 1, 2, 4, 8 and 24 hours after administration, 0.2 mL of blood was collected from the jugular vein and placed in a test tube containing EDTA-K2. The tube was centrifuged at 4° C., 4000 rpm for 5 minutes to separate the plasma, which was stored at −75° C.
Determination of the content of the test compounds in rat plasma after administration of different concentrations of drugs by gavage: 50 μL of rat plasma at each time after administration was taken, and 200 μL of a solution of the internal standard dexamethasone in acetonitrile (50 ng/mL). The mixture was mixed by vortexing for 30 seconds, centrifuged at 4° C., 4700 rpm for 15 minutes. The supernatant of the plasma samples were collected and diluted three times with water, and 2.0 μL was taken for the LC/MS/MS analysis.

CYP1A2 = biological target: T1, CYP1A2 (Homo sapiens, UniProt P05177); experiment: CYP inhibition in mixed human liver microsomes, CYP1A2 (phenacetin); format: in vitro ADME
T1 construct: Mixed human liver microsomes from 150 donors; tissue Corning 452117; host or cells: pooled human liver microsomes (150 donors)
T1 sequence (P05177 1-516): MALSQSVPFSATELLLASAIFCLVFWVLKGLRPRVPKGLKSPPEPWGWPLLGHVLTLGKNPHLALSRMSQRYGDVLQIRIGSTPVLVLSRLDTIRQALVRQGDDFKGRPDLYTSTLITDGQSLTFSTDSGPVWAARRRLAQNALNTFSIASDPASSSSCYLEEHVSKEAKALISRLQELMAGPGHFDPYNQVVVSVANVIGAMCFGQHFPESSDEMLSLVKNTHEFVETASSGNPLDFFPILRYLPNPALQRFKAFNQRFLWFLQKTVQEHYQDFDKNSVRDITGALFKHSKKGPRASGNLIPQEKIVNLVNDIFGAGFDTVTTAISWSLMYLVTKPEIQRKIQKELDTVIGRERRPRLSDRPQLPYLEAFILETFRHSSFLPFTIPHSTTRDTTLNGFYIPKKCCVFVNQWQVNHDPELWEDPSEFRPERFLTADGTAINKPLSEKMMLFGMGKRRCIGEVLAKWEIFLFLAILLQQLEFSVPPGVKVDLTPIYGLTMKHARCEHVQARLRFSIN
Method: (§1) Mixed human liver microsomes from 150 donors (purchased from Corning, catalog number 452117) were used to evaluate the representative substrate metabolic responses of the five main human CYP subtypes (CYP1A2, CYP2C9, CYP2C19, CYP2D6 and CYP3A4/5). The influence of different concentrations of test compounds on the metabolic responses of phenacetin (CYP1A2), diclofenac sodium (CYP2C9), S-mephenytoin (CYP2C19), bufurolol hydrochloride (2D6) and midazolam (CYP3A4/5) was determined by liquid chromatography tandem mass spectrometry (LC/MS/MS).
(§2) 200 μL of the reaction system (100 mmol/L phosphate buffer, pH 7.4, containing 0.3% DMSO, 0.6% acetonitrile and 0.1% methanol by volume respectively) with 30 µM phenacetin, 10 μM diclofenac sodium, 35 μM S-mephenytoin, 5 μM bufurolol hydrochloride, 3 μM midazolam, 1 mM NADPH, test compound (at a concentration of 0.1, 0.3, 1, 3, 10 and 30 μmol/L respectively) or positive compound or blank control and mixed human liver microsomes (0.2 mg/mL) was incubated at 37° C. for 5 minutes. […]
(§3) The peak area was calculated based on the chromatograms. The residual activity ratio (%) was calculated using the following equation: […]
(§4) The CYP median inhibitory concentration (IC50) was calculated by Excel XLfit 5.3.1.3.

CYP3A4/5 = experiment: CYP inhibition in mixed human liver microsomes, CYP3A4/5 (midazolam); format: in vitro ADME; settings: pH 7.4, mixed human liver microsomes 0.2 mg/mL, read-out: Median inhibitory concentration (IC50) CYP 3A4/5
Method: as §1, §2, §3, §4

CYP2C19 = biological target: T2, CYP2C19 (Homo sapiens, UniProt P33261); experiment: CYP inhibition in mixed human liver microsomes, CYP2C19 (S-mephenytoin); format: in vitro ADME
T2 construct: Mixed human liver microsomes from 150 donors; tissue Corning 452117; host or cells: pooled human liver microsomes (150 donors)
T2 sequence (P33261 whole entry): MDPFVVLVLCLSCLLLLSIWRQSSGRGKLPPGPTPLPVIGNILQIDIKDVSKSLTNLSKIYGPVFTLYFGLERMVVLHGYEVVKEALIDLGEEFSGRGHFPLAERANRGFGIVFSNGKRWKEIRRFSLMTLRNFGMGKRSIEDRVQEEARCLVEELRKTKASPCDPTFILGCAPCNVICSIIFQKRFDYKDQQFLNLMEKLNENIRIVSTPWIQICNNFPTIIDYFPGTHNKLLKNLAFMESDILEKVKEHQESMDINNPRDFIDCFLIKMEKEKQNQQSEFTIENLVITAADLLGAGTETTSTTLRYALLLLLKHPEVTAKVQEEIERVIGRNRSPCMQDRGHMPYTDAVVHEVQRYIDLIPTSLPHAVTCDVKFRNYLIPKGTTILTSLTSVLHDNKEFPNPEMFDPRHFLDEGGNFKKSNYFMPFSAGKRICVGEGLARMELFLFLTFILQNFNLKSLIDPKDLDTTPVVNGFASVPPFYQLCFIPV
Method: as §1, §2, §3, §4

[2] = biological target: T3, full-length SHP2 (aa 1-593) (Homo sapiens, UniProt Q06124); experiment: Activity on SHP2 phosphatase (DiFMUP fluorescence)
T3 sequence (Q06124 1-593): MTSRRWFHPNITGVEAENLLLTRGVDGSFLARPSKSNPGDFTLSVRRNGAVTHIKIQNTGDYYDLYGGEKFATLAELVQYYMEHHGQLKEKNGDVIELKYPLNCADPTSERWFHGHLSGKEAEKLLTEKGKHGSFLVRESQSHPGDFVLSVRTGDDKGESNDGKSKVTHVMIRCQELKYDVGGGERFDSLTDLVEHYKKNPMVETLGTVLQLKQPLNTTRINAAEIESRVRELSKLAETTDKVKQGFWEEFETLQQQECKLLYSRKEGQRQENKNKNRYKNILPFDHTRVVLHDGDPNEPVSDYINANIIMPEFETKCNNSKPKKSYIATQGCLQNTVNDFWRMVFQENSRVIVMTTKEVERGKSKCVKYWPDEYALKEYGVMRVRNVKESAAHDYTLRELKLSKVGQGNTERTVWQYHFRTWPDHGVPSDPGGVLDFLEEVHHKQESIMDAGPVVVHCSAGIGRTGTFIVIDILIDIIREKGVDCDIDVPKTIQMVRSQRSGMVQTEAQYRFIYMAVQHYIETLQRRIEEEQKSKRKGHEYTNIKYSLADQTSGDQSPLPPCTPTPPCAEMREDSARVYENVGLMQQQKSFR
Method: 0.2 nM recombinantly expressed full-length SHP2 (aa 1-593), 0.5 nM activated polypeptide IRS1 with dual phosphorylation sites (sequence: H2N-LN(pY)IDLDLY(dPEG8)LST(pY)ASINFQK-amide), and a series of concentrations of the test compound (final concentrations of 1 μM, 0.3 μM, 0.1 μM, 0.03 μM, 0.01 μM, 0.003 μM, 0.001 M, 0.0003 μM, 0.0001 μM and 0.00003 μM) were added into the phosphatase reaction solution (60 mM HEPES, PH 7.5 0.005% Brij-35, 75 mM NaCl, 75 mM KCl, 1 mM EDTA, 5 mM DTT), followed by shaking (350 rpm) at room temperature for 30 minutes. Then the reaction substrate DiFMUP was added at a final concentration of 30 μM, and the reaction solution was reacted at room temperature for 30 minutes. Then the phosphatase reaction was stopped by adding 5 μL of the reaction stop solution (60 mM HEPES, pH 7.5, 0.2% SDS). Ex358 nm/Em455 fluorescence value was read on the fluorescence plate reader MD SpectraMax.
The IC50 value of compounds was calculated by using the four-parameter logit method. […] Different concentrations correspond to different inhibition rates of phosphatase activity. A reverse curve was plotted and the IC50 of the inhibitors was calculated from the curve. The IC50 of compounds was calculated by using Primer premier 6.0.

[2H]C([2H])([2H])Nc1nccc(Sc2c(C)nc(N3CCC4(CC3)Cc3ncccc3[C@H]4N)n3ccnc23)c1Cl [Example 3, (S)-1′-(8-((3-Chloro-2-((methyl-d3)amino)pyridin-4-yl)thio)-7-methylimidazo[1,2-c]pyrimidin-5-yl)-5,7-dihydrospiro[cyclopenta[b]pyridine-6,4′-piperidin]-5-amine]
AUC ([1]; male, SD, plasma, po, 5 mg/kg, read-out: Area under curve AUC): 3820 ng·h/mL | Cmax ([1]; male, SD, plasma, po, 5 mg/kg, read-out: Maximum blood conc. Cmax): 445 ng/mL | Area under curve of unit dose AUC/D [1]: 764 ng*h/mL per mg/kg | IC50 (CYP1A2): 14.7 µM | IC50 at 5 min (CYP3A4/5): > 20 µM | IC50 (CYP2C19): > 20 µM | IC50 [2]: 0.0045 µM
